Source: patent publication US6979686B1, “Substituted pyrazoles as p38 kinase inhibitors” (Pharmacia Corporation, priority 2001, dated 2005)
Like-named read-outs stand apart in the source and are kept apart here. Blank lines part the entries; values can stand above or below the molecule they belong to.

Legend:
human p38 kinase alpha = target: T1, human p38 kinase alpha (Homo sapiens, UniProt Q16539); assay: p38 kinase in vitro assay, phosphorylation of biotinylated PHAS-I with 32P-ATP; type: biochemical; settings: for inhibition at 1 µM: read-out: P38 alpha kinase % inhib @ conc.
T1 construct: GST (N, cleaved yes); made in house; host or cells: E. coli DH10B

[1] = test system: TNF-α, U937 human histiocytic lymphoma cell line; assay: LPS stimulation of TNF production by U937 cells; type: cell-based; settings: for U937 Cell % inhib @ conc. (uM): @ 1.0 uM; for U937 Cell IC50, uM or % inhib @ conc. (uM): % inhib / U937 Cell % inhib @ conc.: @ 10.0 uM; for inhibition at 1 µM: U-937, @ 1.0 uM
Method in brief: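 U937 cells differentiated 24 h with 20 ng/ml PMA, rested 24-48 h, used at 2 million cells/ml. Compounds in 0.1% DMSO final; LPS (E. coli, 100 ng/ml final) stimulation for 4 h at 37° C. Released TNF-α measured by ELISA; IC50 (μM).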

[2] = TNF production, U937 cells stimulated with LPS
[3] = in vitro P38-alpha kinase, read-out: P38 alpha kinase IC50
[4] = in vitro P38-alpha kinase inhibition, read-out: P38 alpha kinase IC50
[5] = Homo sapiens, TNF production in human U937 cells stimulated with LPS, read-out: U937 Cell % inhib @ conc.
[6] = Homo sapiens, TNF production, U937 cells stimulated with LPS, read-out: U937 Cell % inhib @ conc.
[7] = Homo sapiens, U-937, TNF production, human U937 cells stimulated with LPS, read-out: U937 Cell IC50
[8] = TNF production, LPS-stimulated U937 cells
[9] = TNF production, human U937 cells stimulated with LPS, read-out: U937 Cell IC50
[10] = TNF production in human U937 cells stimulated with LPS
[11] = Homo sapiens, TNF production, LPS-stimulated U937 cells, read-out: U937 Cell % inhib @ conc.

T1 sequence (Q16539 whole entry): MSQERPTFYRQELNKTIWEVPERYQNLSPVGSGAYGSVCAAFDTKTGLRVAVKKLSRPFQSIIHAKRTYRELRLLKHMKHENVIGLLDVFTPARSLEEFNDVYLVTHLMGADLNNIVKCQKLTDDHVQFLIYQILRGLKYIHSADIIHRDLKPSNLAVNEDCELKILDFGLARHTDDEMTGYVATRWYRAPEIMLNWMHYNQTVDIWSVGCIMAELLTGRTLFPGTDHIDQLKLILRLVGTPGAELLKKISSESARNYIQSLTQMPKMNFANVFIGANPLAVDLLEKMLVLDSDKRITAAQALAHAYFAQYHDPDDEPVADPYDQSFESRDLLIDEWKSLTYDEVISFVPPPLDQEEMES

SMILES: Cc1c(-c2ccncc2)c(-c2ccc(F)cc2)nn1CC(=O)Nc1ccc(S(=O)(=O)C(F)F)cc1 [Example B-2446]
- P38 alpha kinase IC50, uM or % inhib @ conc. (uM): % inhib (human p38 kinase alpha; @ 10.0 uM): 90.0% @
- U937 Cell IC50, uM or % inhib @ conc. (uM): % inhib [1, 2]: 28.0% @

SMILES: CCCNC(=O)Cn1nc(-c2ccc(F)cc2)c(-c2ccncc2)c1C [Example B-2270]
- IC50 (human p38 kinase alpha; [3]): 720 nM
- inhibition at 10 µM ([1]; Homo sapiens, U-937, @ 10.0 uM, TNF production, LPS-stimulated U937 cells, read-out: U937 Cell % inhib @ conc.): 31%

SMILES: COc1ccc(OC)c(S(=O)(=O)NCCc2[nH]nc(-c3ccc(F)cc3)c2-c2ccncc2)c1 [Example B-1085]
- IC50 (human p38 kinase alpha; [4]): < 100 nM
- inhibition at 1 µM [1, 6]: 29%

SMILES: Cc1cccc(OC(=O)c2ccc(NC(=O)Cn3nc(-c4ccc(F)cc4)c(-c4ccncc4)c3C)cc2)c1 [Example B-2444]
- P38 alpha kinase IC50, uM or % inhib @ conc. (uM): % inhib (human p38 kinase alpha; @ 10.0 uM): 89.0% @
- U937 Cell IC50, uM or % inhib @ conc. (uM): % inhib [1, 2]: 7.0% @

SMILES: CC(C)=CC(=O)NCCCc1[nH]nc(-c2ccc(F)cc2)c1-c1ccncc1 [Example B-1175]
- P38 alpha kinase % inhib @ conc. (uM) (human p38 kinase alpha; @ 1.0 uM): 72.0% @
- IC50 [1, 9]: 1830 nM

SMILES: O=S(=O)(NCCc1[nH]nc(-c2ccc(F)cc2)c1-c1ccncc1)c1ccc(F)cc1 [Example B-1013]
- P38 alpha kinase % inhib @ conc. (uM) (human p38 kinase alpha; @ 1.0 uM): 85.0% @
- U937 Cell % inhib @ conc. (uM) [1, 2]: 7.0% @

SMILES: COC(=O)C1CN1C(=O)Cn1nc(-c2ccc(F)cc2)c(-c2ccncc2)c1C (stereo not shown) [Example B-2406]
- P38 alpha kinase IC50, uM or % inhib @ conc. (uM): % inhib (human p38 kinase alpha; @ 10.0 uM): 45.0% @
- U937 Cell IC50, uM or % inhib @ conc. (uM): % inhib [1, 2]: 24.0% @

SMILES: CN(C)CCNC(=O)NCCCc1[nH]nc(-c2ccc(F)cc2)c1-c1ccncc1 [Example B-1302]
- IC50 (human p38 kinase alpha; [3]): 23 nM
- inhibition at 1 µM [1, 11]: 11%

SMILES: CCN(CC)CCN(Cc1ccc(Cl)cc1)C(=O)Cn1nc(-c2ccc(F)cc2)c(-c2ccncc2)c1C [Example B-2398]
- P38 alpha kinase IC50, uM or % inhib @ conc. (uM): % inhib (human p38 kinase alpha; @ 100.0 uM): 55% @
- U937 Cell IC50, uM or % inhib @ conc. (uM): % inhib [1, 2]: 10.0% @

SMILES: Cc1c(Cl)cccc1S(=O)(=O)NCCc1[nH]nc(-c2ccc(F)cc2)c1-c1ccncc1 [Example B-1075]
- IC50 (human p38 kinase alpha; [4]): 30 nM
- inhibition at 1 µM [1, 6]: 29%

SMILES: COc1cccc(-c2n[nH]c(C)c2-c2ccncc2)c1 [Example A-44]
- IC50 (human p38 kinase alpha; activated human p38 kinase alpha, PHAS-I substrate, 50 μM unlabeled ATP, read-out: p38 kinase IC50): < 100 nM
- IC50 ([1]; Table 5, LPS-stimulated U937 cells, TNF-α, read-out: U937 Cell Assay IC50): 477 nM

SMILES: O=C(c1ccc(I)cc1)N1CCC(c2[nH]nc(-c3ccc(F)cc3)c2-c2ccncc2)CC1 [Example B-1366]
- IC50 (human p38 kinase alpha; [3]): 40 nM
- IC50 [1, 7]: 270 nM

SMILES: CCS(=O)(=O)N1CCC(c2[nH]nc(-c3ccc(F)cc3)c2-c2ccncc2)CC1 [Example B-1375]
- IC50 (human p38 kinase alpha; [3]): 10 nM
- IC50 [1, 7]: 250 nM

SMILES: O=S(=O)(NCc1[nH]nc(-c2ccc(F)cc2)c1-c1ccncc1)c1ccc(OC(F)F)cc1 [Example B-0143]
- P38 alpha kinase % inhib @ conc. (human p38 kinase alpha; @ 1.0 uM): 42.0% @
- IC50 [1, 9]: 3630 nM

SMILES: CN(C)c1cccc2c(S(=O)(=O)N3CCC(c4[nH]nc(-c5ccc(F)cc5)c4-c4ccncc4)CC3)cccc12 [Example B-1442]
- IC50 (human p38 kinase alpha; [3]): 1540 nM
- inhibition at 1 µM [1, 11]: 18%

SMILES: Cc1c(-c2ccncc2)c(-c2ccc(F)cc2)nn1CC(=O)Nc1ccccc1Sc1ccc([N+](=O)[O-])cn1 [Example B-2457]
- P38 alpha kinase IC50, uM or % inhib @ conc. (uM): % inhib (human p38 kinase alpha; @ 10.0 uM): 90.0% @
- U937 Cell IC50, uM or % inhib @ conc. (uM): % inhib [1, 2]: 18.0% @

SMILES: N#Cc1ccc(S(=O)(=O)N2CCC(c3[nH]nc(-c4ccc(F)cc4)c3-c3ccncc3)CC2)cc1 [Example B-1475]
- IC50 (human p38 kinase alpha; [3]): 2100 nM
- inhibition at 1 µM [1, 11]: 24%

The next lines start with results.

- P38 alpha kinase % inhib @ conc. (uM) (human p38 kinase alpha; @ 1.0 uM): 76.0% @
SMILES: COC(=O)c1ccccc1NC(=O)NCCc1[nH]nc(-c2ccc(F)cc2)c1-c1ccncc1 [Example B-0946]
- U937 Cell % inhib @ conc. (uM) [1, 2]: 31.0% @

- IC50 (human p38 kinase alpha; [4]): 300 nM
SMILES: O=S(=O)(NC(Cc1ccccc1)c1[nH]nc(-c2ccc(F)cc2)c1-c1ccncc1)c1cccs1 (stereo not shown) [Example B-0765]
- inhibition at 1 µM [1, 5]: 29%

- IC50 (human p38 kinase alpha; [4]): 3580 nM
SMILES: O=C(NCCc1[nH]nc(-c2ccc(F)cc2)c1-c1ccncc1)c1ccc(Cl)cc1 [Example B-1121]
- inhibition at 1 µM [1, 6]: 29%

- IC50 (human p38 kinase alpha; [4]): 1820 nM
- IC50 [1, 7]: > 1000 nM
SMILES: O=C(NCCc1[nH]nc(-c2ccc(F)cc2)c1-c1ccncc1)c1cccc(C(F)(F)F)c1F [Example B-1138]

- IC50 (human p38 kinase alpha; [4]): 3130 nM
SMILES: CNC(=O)CCC(NC(=O)Cc1cccc(OC)c1)c1[nH]nc(-c2ccc(F)cc2)c1-c1ccncc1 (stereo not shown) [Example B-0872]
- inhibition at 1 µM [1, 6]: 3%

- P38 alpha kinase % inhib @ conc. (human p38 kinase alpha; @ 10.0 uM): 77.0% @
SMILES: CCOC(=O)C(Cc1ccccc1)NC(=O)Cn1nc(-c2ccc(F)cc2)c(-c2ccncc2)c1C (stereo not shown) [Example B-2351]
- U937 Cell % inhib @ conc. [1, 8]: 1.0% @

- P38 alpha kinase % inhib @ conc. (uM) (human p38 kinase alpha; @ 1.0 uM): 58.0% @
SMILES: Cc1ccc(S(=O)(=O)NCCc2[nH]nc(-c3ccc(F)cc3)c2-c2ccncc2)cc1 [Example B-1027]
- U937 Cell % inhib @ conc. (uM) [1, 2]: 18.0% @

- IC50 (human p38 kinase alpha; [4]): 250 nM
SMILES: CNC(=O)NC(Cc1ccccc1)c1[nH]nc(-c2ccc(F)cc2)c1-c1ccncc1 (stereo not shown) [Example B-0730]
- inhibition at 1 µM [1, 5]: 11%

- inhibition at 1 µM (human p38 kinase alpha; @ 1.0 uM): 92%
- IC50 [1, 7]: 8240 nM
SMILES: COc1ccc(CC(=O)NCc2[nH]nc(-c3ccc(F)cc3)c2-c2ccncc2)cc1 [Example B-0036]

- IC50 (human p38 kinase alpha; [4]): 1900 nM
SMILES: O=C(NC(Cc1ccccc1)c1[nH]nc(-c2ccc(F)cc2)c1-c1ccncc1)C1CCCN1 (stereo not shown) [Example B-0795]
- U937 Cell % inhib @ conc. (uM) [1, 10]: 11.0% @

- P38 alpha kinase % inhib @ conc. (human p38 kinase alpha; @ 10.0 uM): 65.0% @
SMILES: CCCCCc1cccc(C(C)NC(=O)Cn2nc(-c3ccc(F)cc3)c(-c3ccncc3)c2C)c1 (stereo not shown) [Example B-2354]
- U937 Cell % inhib @ conc. [1, 8]: 25.0% @

- IC50 (human p38 kinase alpha; [4]): 3460 nM
- IC50 [1, 7]: > 1000 nM
SMILES: COc1ccc(CC(=O)NC(Cc2ccccc2)c2[nH]nc(-c3ccc(F)cc3)c2-c2ccncc2)cc1 (stereo not shown) [Example B-0816]

- IC50 (human p38 kinase alpha; [4]): 600 nM
- IC50 ([1]; Homo sapiens, U-937, TNF production in human U937 cells stimulated with LPS, read-out: U937 Cell IC50): > 1000 nM
SMILES: CNC(=O)NC(Cc1ccccc1)c1[nH]nc(-c2ccc(F)cc2)c1-c1ccncc1 (stereo not shown) [Example B-0775]

- IC50 (human p38 kinase alpha; [4]): 3590 nM
SMILES: CC(NC(=O)NC(C)c1[nH]nc(-c2ccc(F)cc2)c1-c1ccncc1)c1ccccc1 (stereo not shown) [Example B-0591]
- U937 Cell % inhib @ conc. (uM) [1, 10]: 29.0% @

- IC50 (human p38 kinase alpha; [4]): 2130 nM
SMILES: CNC(=O)CCC(NC(=O)c1ccncc1)c1[nH]nc(-c2ccc(F)cc2)c1-c1ccncc1 (stereo not shown) [Example B-0875]
- inhibition at 1 µM [1, 6]: 8%

- IC50 (human p38 kinase alpha; [4]): 1110 nM
- IC50 [1, 7]: > 1000 nM
SMILES: COCC(=O)NC(Cc1ccccc1)c1[nH]nc(-c2ccc(F)cc2)c1-c1ccncc1 (stereo not shown) [Example B-0810]

- IC50 (human p38 kinase alpha; [4]): 4160 nM
SMILES: COc1ccc(NC(=O)NC(C)c2[nH]nc(-c3ccc(F)cc3)c2-c2ccncc2)c(OC)c1 (stereo not shown) [Example B-0599]
- U937 Cell % inhib @ conc. (uM) [1, 10]: 21.0% @

- inhibition at 1 µM (human p38 kinase alpha; @ 1.0 uM): 94%
- IC50 [1, 7]: 3980 nM
SMILES: O=C(NCc1[nH]nc(-c2ccc(F)cc2)c1-c1ccncc1)c1ccccc1C(F)(F)F [Example B-0016]

- IC50 (human p38 kinase alpha; [4]): 2390 nM
- IC50 [1, 7]: > 1000 nM
SMILES: O=C(NC(Cc1ccccc1)c1[nH]nc(-c2ccc(F)cc2)c1-c1ccncc1)c1ccccn1 (stereo not shown) [Example B-0823]

- IC50 (human p38 kinase alpha; [4]): 890 nM
- IC50 [1, 7]: > 1000 nM
SMILES: CNC(=O)CCC(NS(=O)(=O)Cc1ccccc1)c1[nH]nc(-c2ccc(F)cc2)c1-c1ccncc1 (stereo not shown) [Example B-0876]

- IC50 (human p38 kinase alpha; [4]): 1900 nM
- IC50 [1, 7]: > 1000 nM
SMILES: CNC(=O)CCC(NC(=O)c1ccccc1OC)c1[nH]nc(-c2ccc(F)cc2)c1-c1ccncc1 (stereo not shown) [Example B-0871]

- IC50 (human p38 kinase alpha; [4]): 710 nM
- IC50 [1, 7]: > 1000 nM
SMILES: O=C(NC(Cc1ccccc1)c1[nH]nc(-c2ccc(F)cc2)c1-c1ccncc1)C1CC1 (stereo not shown) [Example B-0805]

- IC50 (human p38 kinase alpha; [3]): 120 nM
SMILES: CN(C)c1ccc(CNC(=O)NCCCc2[nH]nc(-c3ccc(F)cc3)c2-c2ccncc2)cc1 [Example B-1301]
- inhibition at 1 µM [1, 11]: 15%

- IC50 (human p38 kinase alpha; [4]): 400 nM
SMILES: O=C(NC(Cc1ccccc1)c1[nH]nc(-c2ccc(F)cc2)c1-c1ccncc1)c1ccccc1C(F)(F)F (stereo not shown) [Example B-0844]
- inhibition at 1 µM [1, 6]: 25%
